Measurements published in patent US6723716B1, “7-acylamino-3-heteroarylthio-3-cephem carboxylic acid antibiotics and prodrugs thereof” (Essential Therapeutics, Inc., priority 1999, dated 2004).
Converted amounts (≈) assume the structure as drawn. Like-named read-outs stand apart in the source and are kept apart here.

Key:
S. aureus ATCC29213 = assay: Human serum binding effect: MIC with and without human serum; assay type: cell-based, Staphylococcus aureus; conditions: 1:1 human serum:MHB
Outline: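 Serum binding was estimated as the ratio of S. aureus ATCC29213 MIC in 1:1 human serum:Mueller-Hinton broth to MIC without serum. Compounds were serially 2-fold diluted, and wells received an early-log-phase inoculum at 1×10^6 CFU/mL final. Inoculum size was checked by colony counts on TSA after overnight incubation at 35 °C.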

[1] = Pharmacokinetic evaluation in rat (clearance); assay type: in vivo; conditions: male, Sprague-Dawley (SD), serum, iv, read-out: Pharmacokinetics Clearance (converted)
Text: Four male SD rats with femoral and jugular vein catheters were obtained from Hilltop Lab Animals, Inc. (Scottdale, Pa.). The catheters in the femoral and jugular veins were filled with 10 units/mL heparin in saline, and kept patent by changing the solution daily. The animals were quarantined for a minimum of two days prior to use, and were maintained on a 12-h light:dark schedule with constant access to food and water before and during the study. On the day of dosing, the animals weighed […] (mean±s.d.).
A 4 mg/mL (active component) dosing solution of mesylate salt of compound 17 was prepared in sterile saline for injection. […] Blood samples (0.2 mL aliquots) were collected from the jugular vein catheter 5, 15, 20, 25, 30, and 45 min, and 1, 2, 3, and 4 h after the start of the infusion. The blood was centrifuged for 10 min and the serum was stored ≦−70° C. until analysis by HPLC.
The plasma concentrations from individual animals were fit to a two-compartment model with zero order input and first-order elimination from the central compartment using weighted nonlinear regression (WinNonlin, Pharsight, Palo Alto, Calif.). Pharmacokinetic parameters were calculated from the fitted parameters using standard equations (Gibaldi M, Perrier D. 1982. Pharmacokinetics, 2nd ed., Marcel Dekker Inc., New York.).

[2] = system: S. aureus ATCC 13709 (Smith diffuse); assay: Murine lethal bacteremic peritonitis (septicemia) efficacy; assay type: in vivo, mice; conditions: for responders at 0.312 mg/kg: dose 0.312 mg/kg s.c. at 0 and 2 h post-challenge; for responders at 0.625 mg/kg: dose 0.625 mg/kg s.c. at 0 and 2 h post-challenge; for responders at 1.25 mg/kg: dose 1.25 mg/kg s.c. at 0 and 2 h post-challenge; for responders at 2.5 mg/kg: dose 2.5 mg/kg s.c. at 0 and 2 h post-challenge; for ED50: ATCC13709, mice, S. aureus ATCC 13709 i.p., s.c. at 0 and 2 h post-challenge, probit method
Experimental: 10 mice/group were injected intraperitoneally with 2.98×10^7 cfu S. aureus ATCC 13709 (Smith diffuse) and treated at 0 and 2 hrs post-challenge with serial two-fold doses of new cephalosporin antibiotic, imipenem and vancomycin subcutaneously in order to determine the ED50. Male Swiss-Webster mice weighing originally 24.2-26.1 g were obtained from Charles Rivers Labs, Hollister, Calif. Mice were housed 10 per cage and given free access to water and mouse chow.
Staphylococcus aureus ATCC 13709 (Smith diffuse) was grown overnight at 37° C. in Brain-heart Infusion broth (BHIB). The following morning, it was subcultured to fresh BHIB and incubated for 4-5 h at 37° C. The log-phase growth cells were washed once with physiological saline and adjusted to the desired concentration by correlation of absorbency at OD 600 nm with predetermined plate counts (NCCLS, 1994). The cell suspension was mixed with an equal volume of sterile 14% hog-gastric mucin (2). Inoculum was kept in an ice bath until used (<1 h).
Mice were challenged via an injection of 0.5 mL bacterial suspension intraperitoneally. The bacterial challenge was 2.98×10^7 cfu/mouse.
Imipenem (Primaxin IV; Lot 7294A), vancomycin (Vancocin; Lot 8MU60W), and new cephalosporin antibiotic were prepared by serial two-fold dilutions to concentrations of 0.078-0.005 mg/mL, 1.2-0.075 mg/mL, 0.3-0.02 mg/mL, 0.3-0.02 mg/mL and 0.3-0.02 mg/mL respectively in sterile water (1). All antibiotics were administered subcutaneously in 0.1 mL volumes at 0 and 2 hours post-challenge. Concentrations of all compounds are based on the weight of the bioactive ingredients.
The 50% effective dose (ED50) was calculated by the probit method (3) utilizing a program entitled Probit (Nycomed-Salutar).

E. coli ATCC25992 = assay: Broth microdilution MIC (NCCLS); assay type: cell-based; conditions: Escherichia coli
Outline: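 Endpoint: lowest concentration preventing visible or OD650-detected growth. Conditions: Mueller-Hinton broth, serial 2-fold compound dilutions, 5×10^5 CFU/mL, 35° C for 24 h. Inoculum counts were checked by plating on TSA.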

E. faecium A491 (Amp^R) = assay: Broth microdilution MIC (NCCLS); assay type: cell-based; conditions: Enterococcus faecium
Outline: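 NCCLS broth microdilution in Mueller-Hinton broth, final inoculum 5×10^5 CFU/mL from early-log cultures (Enterococcus diluted from overnight cultures), serial 2-fold compound dilutions. Plates incubated 24 h at 35° C, read at 650 nm and visually; MIC = lowest concentration preventing growth.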

[3] = Staphylococcus aureus, ATCC13709, sc, read-out: Efficacy in murine septicemia % survival
[4] = dose 5 mg/kg s.c. at 0 and 2 h post-challenge

## NCCSCc1nc(N)sc1SC1=C(C(=O)O)N2C(=O)[C@@H](NC(=O)/C(=N\O)c3nc(N)sc3Cl)[C@H]2SC1 [Cmpd 3, (7R)-7-[(Z)-2-(2-amino-5-chlorothiazol-4-yl)-2-(hydroxyimino)acetamido]-3-[4-(2-aminoethylthiomethyl)-2-amino-1,3-thiazol-5-ylthio]-3-cephem-4-carboxylic acid]
S. aureus ATCC29213
  Human serum binding effect (ratio of MIC value determined with and without human serum added): 4
[1]; dose 27.5 mg/kg
  clearance: 15.8 mL/min/kg
[2]; Staphylococcus aureus, ATCC13709, sc, dose 0.078 mg/kg s.c. at 0 and 2 h post-challenge, read-out: Efficacy in murine septicemia % survival
  responders at 0.078 mg/kg: 30%
[2]; Staphylococcus aureus, ATCC13709, sc, dose 0.165 mg/kg s.c. at 0 and 2 h post-challenge, read-out: Efficacy in murine septicemia % survival
  responders at 0.165 mg/kg: 40%
[2]; [3]
  responders at 0.312 mg/kg: 50%
  responders at 0.625 mg/kg: 90%
  responders at 1.25 mg/kg: 90%
  responders at 2.5 mg/kg: 100%
[2]; Staphylococcus aureus
  ED50: 0.39 mg/kg

## NCCSCc1nc(SCCN)sc1SC1=C(C(=O)O)N2C(=O)[C@@H](NC(=O)/C(=N\O)c3nc(N)sc3Cl)[C@H]2SC1 [Cmpd 11, (7R)-7-[(Z)-2-(2-amino-5-chlorothiazol-4-yl)-2-(hydroxyimino)acetamido]-3-[4-(2-aminoethylthiomethyl)-2-aminoethylthio-1,3-thiazol-5-ylthio]-3-cephem-4-carboxylic acid]
S. aureus ATCC29213
  Human serum binding effect (ratio of MIC value determined with and without human serum added): 4
E. coli ATCC25992
  MIC: 2 µg/mL (≈ 2.93 µM)
E. faecium A491 (Amp^R)
  MIC: 4 µg/mL (≈ 5.85 µM)

## NCCSCc1ncccc1SC1=C(C(=O)O)N2C(=O)[C@@H](NC(=O)/C(=N\O)c3nc(N)sc3Cl)[C@H]2SC1 [Cmpd 13, (7R)-7-[(Z)-2-(2-amino-5-chlorothiazol-4-yl)-2-(hydroxyimino)acetamido]-3-[2-(2-aminoethylthiomethyl)pyrid-3-ylthio]-3-cephem-4-carboxylic acid]
S. aureus ATCC29213
  Human serum binding effect (ratio of MIC value determined with and without human serum added): 2
[1]; dose 20.0 mg/kg
  clearance: 13.2 mL/min/kg
[2]; [3]
  responders at 0.625 mg/kg: 100%
  responders at 1.25 mg/kg: 100%
  responders at 2.5 mg/kg: 100%
[2]; [4]
  Efficacy in murine septicemia % survival: 5/100%

## N=C(N)NCCSCc1ncccc1SC1=C(C(=O)O)N2C(=O)[C@@H](NC(=O)/C(=N\O)c3nsc(N)n3)[C@H]2SC1 [Cmpd 14, (7R)-7-[(Z)-2-(5-amino-1,2,4-thiadiazol-3-yl)-2-(hydroxyimino)acetamido]-3-[2-(2-guanidinoethylthiomethyl)pyrid-3-ylthio]-3-cephem-4-carboxylic acid]
S. aureus ATCC29213
  Human serum binding effect (ratio of MIC value determined with and without human serum added): 2
[2]; [3]
  responders at 0.312 mg/kg: 90%
  responders at 0.625 mg/kg: 100%
  responders at 1.25 mg/kg: 100%
  responders at 2.5 mg/kg: 100%
[2]; Staphylococcus aureus
  ED50: < 0.31 mg/kg
[2]; [4]
  Efficacy in murine septicemia % survival: 5/100%

## NCCSCc1ncccc1SC1=C(C(=O)O)N2C(=O)[C@@H](NC(=O)/C(=N\O)c3nsc(N)n3)[C@H]2SC1 [Cmpd 17, (7R)-7-[(Z)-2-(5-amino-1,2,4-thiadiazol-3-yl)-2-(hydroxyimino)acetamido]-3-[2-(2-aminoethylthiomethyl)pyrid-3-ylthio]-3-cephem-4-carboxylic acid]
S. aureus ATCC29213
  Human serum binding effect (ratio of MIC value determined with and without human serum added): 2
[1]; dose 16.4 mg/kg, mesylate salt, 20 min i.v. infusion
  clearance: 8.33 mL/min/kg
[2]; Staphylococcus aureus, ATCC13709, sc, dose 0.12 mg/kg s.c. at 0 and 2 h post-challenge, read-out: Efficacy in murine septicemia % survival
  responders at 0.12 mg/kg: 10%
[2]; Staphylococcus aureus, ATCC13709, sc, dose 0.25 mg/kg s.c. at 0 and 2 h post-challenge, read-out: Efficacy in murine septicemia % survival
  responders at 0.25 mg/kg: 20%
[2]; Staphylococcus aureus, ATCC13709, sc, dose 0.5 mg/kg s.c. at 0 and 2 h post-challenge, read-out: Efficacy in murine septicemia % survival
  responders at 0.5 mg/kg: 50%
[2]; Staphylococcus aureus, ATCC13709, sc, dose 1.0 mg/kg s.c. at 0 and 2 h post-challenge, read-out: Efficacy in murine septicemia % survival
  responders at 1 mg/kg: 100%
[2]; Staphylococcus aureus, ATCC13709, sc, dose 2.0 mg/kg s.c. at 0 and 2 h post-challenge, read-out: Efficacy in murine septicemia % survival
  responders at 2 mg/kg: 100%
[2]; Staphylococcus aureus
  ED50: 0.39 mg/kg

## NCCSCc1cnccc1SC1=C(C(=O)O)N2C(=O)[C@@H](NC(=O)/C(=N\O)c3nsc(N)n3)[C@H]2SC1 [Cmpd 18, (7R)-7-[(Z)-2-(5-amino-1,2,4-thiadiazol-3-yl)-2-(hydroxyimino)acetamido]-3-[3-(2-aminoethylthiomethyl)pyrid-4-ylthio]-3-cephem-4-carboxylic acid]
S. aureus ATCC29213
  Human serum binding effect (ratio of MIC value determined with and without human serum added): 2
E. coli ATCC25992
  MIC: 0.5 µg/mL (≈ 0.879 µM)
E. faecium A491 (Amp^R)
  MIC: 32 µg/mL (≈ 56.3 µM)
[1]; dose 20.0 mg/kg
  clearance: 36.2 mL/min/kg
[2]; [3]
  responders at 0.312 mg/kg: 30%
  responders at 0.625 mg/kg: 60%
  responders at 1.25 mg/kg: 100%
  responders at 2.5 mg/kg: 100%
[2]; Staphylococcus aureus
  ED50: 0.46 mg/kg
[2]; [4]
  Efficacy in murine septicemia % survival: 5/100%

## NCCSCc1ccncc1SC1=C(C(=O)O)N2C(=O)[C@@H](NC(=O)/C(=N\O)c3nc(N)sc3Cl)[C@H]2SC1 [Cmpd 21, (7R)-7-[(Z)-2-(2-amino-5-chlorothiazol-4-yl)-2-(hydroxyimino)acetamido]-3-[4-(2-aminoethylthiomethyl)pyrid-3-ylthio]-3-cephem-4-carboxylic acid]
S. aureus ATCC29213
  Human serum binding effect (ratio of MIC value determined with and without human serum added): 2
[1]; dose 20.0 mg/kg
  clearance: 12.2 mL/min/kg
[2]; [3]
  responders at 0.312 mg/kg: 0%
  responders at 0.625 mg/kg: 0%
  responders at 1.25 mg/kg: 70%
  responders at 2.5 mg/kg: 80%
[2]; Staphylococcus aureus
  ED50: 0.79 mg/kg

## NCCSCc1ncsc1SC1=C(C(=O)O)N2C(=O)[C@@H](NC(=O)/C(=N\O)c3cccc(N)n3)[C@H]2SC1 [Cmpd 23, (7R)-7-[(Z)-2-(2-aminopyrid-6-yl)-2-(hydroxyimino)acetamido]-3-[4-(2-aminoethylthiomethyl)-1,3-thiazol-5-ylthio]-3-cephem-4-carboxylic acid]
E. coli ATCC25992
  MIC: 16 µg/mL (≈ 28.2 µM)
[1]; dose 20.0 mg/kg
  clearance: 13.5 mL/min/kg
[2]; [3]
  responders at 0.312 mg/kg: 40%
  responders at 1.25 mg/kg: 100%
  responders at 2.5 mg/kg: 100%
[2]; Staphylococcus aureus
  ED50: 0.39 mg/kg
[2]; [4]
  Efficacy in murine septicemia % survival: 5/100%

## NCCSCc1cnccc1SC1=C(C(=O)O)N2C(=O)[C@@H](NC(=O)/C(=N\O)c3cccc(N)n3)[C@H]2SC1 [Cmpd 24, (7R)-7-[(Z)-2-(2-aminopyrid-6-yl)-2-(hydroxyimino)acetamido]-3-[3-(2-aminoethylthiomethyl)pyrid-4-ylthio]-3-cephem-4-carboxylic acid]
E. coli ATCC25992
  MIC: 16 µg/mL (≈ 28.5 µM)
E. faecium A491 (Amp^R)
  MIC: 32 µg/mL (≈ 57 µM)
[1]; dose 20.0 mg/kg
  clearance: 47.5 mL/min/kg
[2]; [3]
  responders at 0.625 mg/kg: 30%
  responders at 1.25 mg/kg: 90%
  responders at 2.5 mg/kg: 100%
[2]; Staphylococcus aureus
  ED50: 0.76 mg/kg
[2]; [4]
  Efficacy in murine septicemia % survival: 5/100%
[2]; dose 10 mg/kg s.c. at 0 and 2 h post-challenge
  Efficacy in murine septicemia % survival: 10/100%
